The IC50 is the midpoint of a concentration-inhibition curve.

Results on three compounds are retold here after paper PMC6259253, “Synthesis of Benzofuran Derivatives via Rearrangement and Their Inhibitory Activity on Acetylcholinesterase” (Molecules, 2010).

T1 sequence (P37136 32-614): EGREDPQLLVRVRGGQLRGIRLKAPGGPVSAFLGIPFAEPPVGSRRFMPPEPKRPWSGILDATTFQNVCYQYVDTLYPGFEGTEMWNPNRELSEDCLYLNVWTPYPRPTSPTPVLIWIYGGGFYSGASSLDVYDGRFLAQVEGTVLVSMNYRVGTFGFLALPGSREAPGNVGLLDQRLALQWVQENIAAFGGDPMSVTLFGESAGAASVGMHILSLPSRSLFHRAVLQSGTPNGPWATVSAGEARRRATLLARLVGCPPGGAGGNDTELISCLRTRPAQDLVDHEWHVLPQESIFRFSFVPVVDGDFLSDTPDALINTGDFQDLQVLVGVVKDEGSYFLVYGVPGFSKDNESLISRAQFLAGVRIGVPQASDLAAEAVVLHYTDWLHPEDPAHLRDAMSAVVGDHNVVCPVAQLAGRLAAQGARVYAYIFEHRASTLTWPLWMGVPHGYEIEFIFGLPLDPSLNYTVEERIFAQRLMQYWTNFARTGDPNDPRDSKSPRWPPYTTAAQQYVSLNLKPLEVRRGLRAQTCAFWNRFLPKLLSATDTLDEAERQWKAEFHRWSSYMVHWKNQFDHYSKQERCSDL

The experiment addresses T1, AChE (Rattus norvegicus, UniProt P37136).
T1 construct: utilizing freshly prepared AChE from rats brain homogenate; from tissue; host or cells: rat whole brain except cerebellum, homogenate
The experiment is described as follows: biochemical. The following applies: AChE from rat brain homogenate; Ellman's method; means ± standard deviation of three independent experiments; read-out: AChE inhibition (IC50). As for the experimental part: AChE activity was measured in duplicate by the spectrophotometric method reported by Ellman et al. with some modifications, mainly involving the source of the enzyme and the reference compound. Rat brain homogenate was used as the enzyme source. The whole brain except for the cerebellum was homogenized in nine volumes of 100 mM sodium phosphate buffer (pH 7.0). The test compounds were dissolved in dimethyl sulphoxide (DMSO). The AChE activity was expressed as a change in OD at 412 nm.
In general terms: DTNB colorimetry detects thiols as they appear.
For the compound `Cc1ccc2oc(C(=O)N3CCN(c4ccccc4C)CC3)c(N3CCOCC3)c2c1` [Compound A2, (4-o-Tolylpiperazin-1-yl)-(5-methyl-3-morpholinobenzofuran-2-yl) methanone], the 50% inhibitory concentration (IC50) worked out at 32 ± 0.1 µM.

As to `COc1ccc(N2CCN(C(=O)c3oc4ccc(C)cc4c3N3CCOCC3)CC2)cc1` [Compound A5, (4-(4-Methoxyphenyl)piperazin-1-yl) (5-methyl-3-morpholinobenzofuran-2-yl) methanone], the IC50 was 21 ± 0.1 µM.

Consider `Cc1ccc(N2CCN(C(=O)c3oc4ccc(C)cc4c3N3CCOCC3)CC2)cc1` [Compound A4, (4-p-Tolylpiperazin-1-yl)-(5-methyl-3-morpholinobenzofuran-2-yl) methanone], for which the IC50 is 11 ± 0.2 µM.
